Calls of active or inactive are those of the source. The calls are words filed in the database; no cut-off is given here.
How the values were obtained:
MCF7 [1] = test: Antitumor activity against human MCF7 cells xenografted in Balb/c nude mouse assessed as tumor growth inhibition at 4 mg/kg, ip administered every other day for 20 days relative to control; format: functional; conditions: MCF7, 480 h, time 20 day, read-out: TGI
[2] = Antitumor activity against human Tamoxifen-resistant LCC2 cells xenografted in Balb/c nude mouse assessed as tumor growth inhibition at 4 mg/kg, ip administered every other day for 20 days relative to control; format: functional; conditions: Tamoxifen-resistant LCC2 cell, 480 h, time 20 day, read-out: TGI
Tubulin (Homo sapiens) [3] = molecular target: T1, Tubulin (Homo sapiens) (UniProt P68371+Q9H4B7+P0DPH7+P68366+Q13509+Q71U36+P04350+Q3ZCM7+P07437+P68363+Q9BQE3+Q6PEY2+Q13885+Q9BVA1+Q9BUF5); test: Inhibition of tubulin polymerization (unknown origin) at 30 uM incubated for 60 mins by microplate reader analysis; format: protein-complex assay
[4] = Antiproliferative activity against human Tamoxifen-resistant LCC2 cells assessed as inhibition of cell proliferation incubated for 72 hrs by CCK8 assay; format: functional, cell-based
[5] = Selectivity index, ratio of IC50 for cytotoxicity against human MCF-10A cells to IC50 for antiproliferative activity against human MCF7 cells; format: toxicity, cell-based; conditions: MCF-10A cells and MCF7 cells, read-out: Ratio IC50
[6] = molecular target: T2, Estrogen receptor (Homo sapiens) (UniProt P03372); test: Induction of ERalpha degradation in human MCF7 cells at 5 uM incubated for 24 hrs by Western blot analysis; format: cell-based
T2 sequence (whole entry): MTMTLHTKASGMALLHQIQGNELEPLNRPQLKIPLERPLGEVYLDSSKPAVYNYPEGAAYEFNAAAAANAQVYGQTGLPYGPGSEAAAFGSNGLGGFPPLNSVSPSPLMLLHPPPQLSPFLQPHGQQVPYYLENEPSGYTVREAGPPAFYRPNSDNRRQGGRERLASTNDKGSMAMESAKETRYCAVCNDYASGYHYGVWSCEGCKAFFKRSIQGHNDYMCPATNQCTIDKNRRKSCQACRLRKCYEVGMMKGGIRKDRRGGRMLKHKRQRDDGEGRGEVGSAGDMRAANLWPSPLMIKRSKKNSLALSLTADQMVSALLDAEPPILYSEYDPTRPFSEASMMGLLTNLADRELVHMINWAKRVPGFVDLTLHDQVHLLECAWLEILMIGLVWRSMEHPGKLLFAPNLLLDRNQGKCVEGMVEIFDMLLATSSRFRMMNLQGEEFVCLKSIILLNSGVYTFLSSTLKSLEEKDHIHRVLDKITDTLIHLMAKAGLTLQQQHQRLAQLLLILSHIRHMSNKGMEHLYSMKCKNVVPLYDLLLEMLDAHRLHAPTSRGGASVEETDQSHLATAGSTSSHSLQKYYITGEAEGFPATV

T47D [7] = test: Antiproliferative activity against ERalpha positive human T47D cells assessed as inhibition of cell proliferation incubated for 72 hrs by CCK8 assay; format: functional, cell-based
T47D [8] = test: Antiproliferative activity against human T47D cells harboring ERalpha D538G mutant assessed as inhibition of cell proliferation incubated for 72 hrs by CCK8 assay; format: functional, cell-based
[9] = Cytotoxicity against human MCF-10A cells assessed as inhibition of cell proliferation incubated for 72 hrs by CCK8 assay; format: toxicity, cell-based
MCF7 [10] = test: Induction of cell cycle arrest in human MCF7 cells assessed as increase in G2/M phase cells at 0 to 8 uM incubated for 48 hrs by flow cytometry analysis (reference value: 17.45%); format: functional; conditions: dose 0-8 µM
Tubulin (Homo sapiens) [11] = molecular target: T1, Tubulin (Homo sapiens); test: Disruption of microtubule network in human MCF7 cells assessed as ruptured microtubule network at 2 uM incubated for 48 hrs by DAPI staining based confocal laser scanning microscopic analysis; format: cell-based
Estrogen receptor = molecular target: T3, Estrogen receptor (Homo sapiens, UniProt P03372); test: Antagonist activity at ERalpha (unknown origin) expressed in HEK293T cells co-expressing ERbeta and ERE-luciferase reporter assessed as reduction in relative light unit incubated for 24 hrs by dual-luciferase reporter assay; format: cell-based
T3 sequence (P03372 whole entry): T2 sequence (whole entry)

MDA-MB-231 = test: Antiproliferative activity against ERalpha negative human MDA-MB-231 cells assessed as inhibition of cell proliferation incubated for 72 hrs by CCK8 assay; format: functional, cell-based; conditions: MDA-MB-231, 72 h
Tubulin (Homo sapiens) [12] = molecular target: T1, Tubulin (Homo sapiens); test: Disruption of microtubule network in human LCC2 cells assessed as chaotic microtubule network at 4 uM incubated for 48 hrs by DAPI staining based confocal laser scanning microscopic analysis; format: cell-based
[13] = molecular target: Estrogen receptor beta (Homo sapiens) (UniProt Q92731); test: Binding affinity to human ERbeta assessed as relative binding affinity incubated under vibration for 1 min followed by 2 hrs incubation under dark condition by fluorescence polarization assay relative to estradiol; conditions: time 121.0 min
Estrogen receptor beta (Homo sapiens), sequence (Q92731 whole entry): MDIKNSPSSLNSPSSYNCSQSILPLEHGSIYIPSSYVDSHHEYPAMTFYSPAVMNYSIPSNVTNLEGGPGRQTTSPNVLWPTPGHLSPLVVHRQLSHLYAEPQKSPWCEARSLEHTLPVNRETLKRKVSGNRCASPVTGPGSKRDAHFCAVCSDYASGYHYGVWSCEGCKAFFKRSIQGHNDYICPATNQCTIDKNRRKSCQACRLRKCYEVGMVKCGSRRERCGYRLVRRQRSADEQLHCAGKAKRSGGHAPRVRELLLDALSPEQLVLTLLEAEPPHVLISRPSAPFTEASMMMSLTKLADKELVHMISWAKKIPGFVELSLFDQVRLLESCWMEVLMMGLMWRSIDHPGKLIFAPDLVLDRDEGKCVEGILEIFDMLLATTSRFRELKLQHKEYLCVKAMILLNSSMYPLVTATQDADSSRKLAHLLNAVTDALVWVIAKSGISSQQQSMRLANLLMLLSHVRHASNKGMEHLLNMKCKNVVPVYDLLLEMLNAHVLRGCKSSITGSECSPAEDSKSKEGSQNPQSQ

T47D [14] = test: Antiproliferative activity against human T47D cells harboring ERalpha Y537S mutant assessed as inhibition of cell proliferation incubated for 72 hrs by CCK8 assay; format: functional, cell-based
LCC2 = test: Induction of cell cycle arrest in human LCC2 cells assessed as accumulation of cells at G2/M phase incubated for 48 hrs by flow cytometry analysis; format: functional, cell-based; conditions: dose 6-24 µM
Tubulin (Homo sapiens) [15] = molecular target: T1, Tubulin (Homo sapiens); test: Disruption of microtubule network in human MCF7 cells assessed as chaotic microtubule network at 2 uM incubated for 48 hrs by DAPI staining based confocal laser scanning microscopic analysis; format: cell-based
Tubulin (Homo sapiens) [16] = molecular target: T1, Tubulin (Homo sapiens); test: Disruption of microtubule network in human LCC2 cells assessed as ruptured microtubule network at 4 uM incubated for 48 hrs by DAPI staining based confocal laser scanning microscopic analysis; format: cell-based
Homo sapiens = organism: Homo sapiens; test: Selectivity ratio of relative binding affinity for human ERalpha to relative binding affinity to human ERbeta
[17] = molecular target: T2, Estrogen receptor (Homo sapiens); test: Binding affinity to human ERalpha assessed as relative binding affinity incubated under vibration for 1 min followed by 2 hrs incubation under dark condition by fluorescence polarization assay relative to estradiol; conditions: time 121.0 min
MCF7 [18] = test: Antiproliferative activity against ERalpha positive human MCF7 cells assessed as inhibition of cell proliferation incubated for 72 hrs by CCK8 assay; format: functional, cell-based; conditions: MCF7, 72 h

| tubulin polymerization inhibition (active/not active) (Tubulin (Homo sapiens) [3]) | IC50 (T47D [7]) | IC50 (T47D [8]) | RBA [13] | IC50 (T47D [14]) | Selectivity ratio (Homo sapiens) | RBA [17] | IC50 (MCF7 [18]) | SMILES | IC50 [4] | selectivity ratio [5] | IC50 at 72 h [9] | also measured |
| --- | --- | --- | --- | --- | --- | --- | --- | --- | --- | --- | --- | --- |
| – | – | – | – | – | – | – | – | CC/C(=C(\c1ccccc1)c1ccc(OCCN(C)C)cc1)c1ccccc1 [TAMOXIFEN] | – | – | – | inhibition in vivo at 4 mg/kg (MCF7 [1]): 71.4%; inhibition in vivo at 4 mg/kg [2]: 6.25% |
| inactive | > 31 µM | > 31 µM | – | – | – | – | – | O=S(=O)(Oc1ccccc1)C1CC2OC1C(c1ccc(O)cc1)=C2c1ccc(O)cc1 (centres undefined) | 25 µM | > 4.11 | > 60 µM | Activity [6]: inactive |
| Active | 0.85 µM | 1.47 µM | 0.39% | 1.56 µM | 44.5 | 17.4% | 0.28 µM | N#C[Se]CCCCCC(=O)Nc1ccc(C2=C(c3ccc(O)cc3)C3CC(S(=O)(=O)Oc4ccccc4F)C2O3)cc1 (centres undefined) | 6.13 µM | 63 | 17.6 µM | Activity (MCF7 [10]): 27.55%; Activity (Tubulin (Homo sapiens) [11]): Active; IC50 (Estrogen receptor): 1.01 µM; IC50 (MDA-MB-231): 3.4 µM; Activity (Tubulin (Homo sapiens) [12]): Active; Activity (LCC2): Dose-Dependent Effect; Activity (Tubulin (Homo sapiens) [15]): Active; Activity (Tubulin (Homo sapiens) [16]): Active |
| inactive | 6.92 µM | 7.25 µM | 0.06% | 12.7 µM | 12.7 | 0.76% | 0.23 µM | COc1ccc(N(CC(F)(F)F)S(=O)(=O)C2CC3OC2C(c2ccc(O)cc2)=C3c2ccc(O)cc2)cc1 (centres undefined) | 5.16 µM | 88.6 | 20.4 µM | – |

From ChEMBL document CHEMBL5360672, “Identification of Novel Dual-Target Estrogen Receptor α Degraders with Tubulin Inhibitory Activity for the Treatment of Endocrine-Resistant Breast Cancer” (J Med Chem, 2023)
